Test results from ChEMBL document CHEMBL5442219.

Assays:
Settings in all cases: Compound concentration 10 µM
[1] = molecular target: T1, Muscarinic acetylcholine receptor M4 (Homo sapiens) (UniProt P08173)
T1 sequence (whole entry): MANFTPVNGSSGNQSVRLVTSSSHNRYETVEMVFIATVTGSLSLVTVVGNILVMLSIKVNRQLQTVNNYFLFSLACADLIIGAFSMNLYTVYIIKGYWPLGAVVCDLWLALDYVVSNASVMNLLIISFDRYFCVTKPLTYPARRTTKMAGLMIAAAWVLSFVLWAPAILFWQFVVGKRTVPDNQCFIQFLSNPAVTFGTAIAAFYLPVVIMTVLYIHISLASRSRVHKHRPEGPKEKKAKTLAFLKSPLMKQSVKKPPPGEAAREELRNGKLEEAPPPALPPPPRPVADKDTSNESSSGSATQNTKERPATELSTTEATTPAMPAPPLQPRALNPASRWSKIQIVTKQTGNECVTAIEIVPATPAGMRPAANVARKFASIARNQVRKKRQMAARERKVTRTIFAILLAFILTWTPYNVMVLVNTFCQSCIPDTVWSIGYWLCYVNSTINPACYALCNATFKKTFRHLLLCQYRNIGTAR
Description: PDSP Primary Binding target: CHRM4 - Compounds are tested at 10 uM concentration, plate are incubated at room temperature in the dark for 90 minutes. Reaction are stopped by vacuum filtration onto 0.3% polyethyleneimine soaked filter mats using Filtermate harvester. Scintilation cocktail is then melted onto microwave-dried filters on a hot plate and the radio activity is counted in Microbia counter.

[2] = molecular target: T2, Alpha-1B adrenergic receptor (Homo sapiens) (UniProt P35368)
T2 sequence (whole entry): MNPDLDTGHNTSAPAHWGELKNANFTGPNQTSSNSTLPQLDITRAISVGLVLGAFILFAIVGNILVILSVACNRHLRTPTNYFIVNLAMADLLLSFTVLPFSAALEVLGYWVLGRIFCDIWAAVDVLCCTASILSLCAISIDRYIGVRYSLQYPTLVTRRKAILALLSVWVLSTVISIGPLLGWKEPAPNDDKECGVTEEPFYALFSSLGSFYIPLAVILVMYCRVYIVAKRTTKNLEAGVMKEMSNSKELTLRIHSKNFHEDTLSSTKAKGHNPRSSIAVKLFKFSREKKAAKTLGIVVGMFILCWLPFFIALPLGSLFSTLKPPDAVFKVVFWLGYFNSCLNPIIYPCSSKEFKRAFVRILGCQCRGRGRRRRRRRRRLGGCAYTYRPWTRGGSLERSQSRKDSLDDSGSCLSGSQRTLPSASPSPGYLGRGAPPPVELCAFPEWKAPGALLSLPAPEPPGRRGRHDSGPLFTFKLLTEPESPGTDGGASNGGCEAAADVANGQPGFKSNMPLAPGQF
Description: PDSP Primary Binding target: ADRA1B - Compounds are tested at 10 uM concentration, plate are incubated at room temperature in the dark for 90 minutes. Reaction are stopped by vacuum filtration onto 0.3% polyethyleneimine soaked filter mats using Filtermate harvester. Scintilation cocktail is then melted onto microwave-dried filters on a hot plate and the radio activity is counted in Microbia counter.

[3] = molecular target: Translocator protein (Homo sapiens) (UniProt P30536)
Description: PDSP Primary Binding target: TSPO - Compounds are tested at 10 uM concentration, plate are incubated at room temperature in the dark for 90 minutes. Reaction are stopped by vacuum filtration onto 0.3% polyethyleneimine soaked filter mats using Filtermate harvester. Scintilation cocktail is then melted onto microwave-dried filters on a hot plate and the radio activity is counted in Microbia counter.

[4] = molecular target: T3, Alpha-1A adrenergic receptor (Homo sapiens) (UniProt P35348)
T3 sequence (whole entry): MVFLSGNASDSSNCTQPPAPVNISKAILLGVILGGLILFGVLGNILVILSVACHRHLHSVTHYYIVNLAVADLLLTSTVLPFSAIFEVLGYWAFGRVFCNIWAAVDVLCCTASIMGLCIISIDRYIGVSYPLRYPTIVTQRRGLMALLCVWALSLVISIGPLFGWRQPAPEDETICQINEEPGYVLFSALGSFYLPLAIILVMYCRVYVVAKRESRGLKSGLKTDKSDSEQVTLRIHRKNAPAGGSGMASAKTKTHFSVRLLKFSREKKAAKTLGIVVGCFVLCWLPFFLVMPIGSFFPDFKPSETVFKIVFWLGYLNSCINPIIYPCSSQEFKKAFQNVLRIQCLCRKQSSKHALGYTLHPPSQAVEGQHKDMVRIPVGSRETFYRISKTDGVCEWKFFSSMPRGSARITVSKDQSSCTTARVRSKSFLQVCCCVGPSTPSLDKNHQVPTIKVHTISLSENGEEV
Description: PDSP Primary Binding target: ADRA1A - Compounds are tested at 10 uM concentration, plate are incubated at room temperature in the dark for 90 minutes. Reaction are stopped by vacuum filtration onto 0.3% polyethyleneimine soaked filter mats using Filtermate harvester. Scintilation cocktail is then melted onto microwave-dried filters on a hot plate and the radio activity is counted in Microbia counter.

[5] = molecular target: Histamine H1 receptor (Homo sapiens) (UniProt P35367)
Description: PDSP Primary Binding target: HRH1 - Compounds are tested at 10 uM concentration, plate are incubated at room temperature in the dark for 90 minutes. Reaction are stopped by vacuum filtration onto 0.3% polyethyleneimine soaked filter mats using Filtermate harvester. Scintilation cocktail is then melted onto microwave-dried filters on a hot plate and the radio activity is counted in Microbia counter.

[6] = molecular target: T4, 5-hydroxytryptamine receptor 1A (Homo sapiens) (UniProt P08908)
T4 sequence (whole entry): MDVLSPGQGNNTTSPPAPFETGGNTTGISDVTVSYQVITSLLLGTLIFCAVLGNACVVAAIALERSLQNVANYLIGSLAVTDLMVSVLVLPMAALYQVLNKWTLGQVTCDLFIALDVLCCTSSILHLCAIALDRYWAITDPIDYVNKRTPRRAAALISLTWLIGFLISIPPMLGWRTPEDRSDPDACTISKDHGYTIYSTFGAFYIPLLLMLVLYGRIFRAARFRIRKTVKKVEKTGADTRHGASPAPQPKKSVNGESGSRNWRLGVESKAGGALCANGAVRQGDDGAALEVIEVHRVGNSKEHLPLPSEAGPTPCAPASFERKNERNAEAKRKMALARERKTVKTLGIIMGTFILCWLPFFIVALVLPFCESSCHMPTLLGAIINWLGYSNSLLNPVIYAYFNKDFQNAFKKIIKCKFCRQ
Description: PDSP Primary Binding target: HTR1A - Compounds are tested at 10 uM concentration, plate are incubated at room temperature in the dark for 90 minutes. Reaction are stopped by vacuum filtration onto 0.3% polyethyleneimine soaked filter mats using Filtermate harvester. Scintilation cocktail is then melted onto microwave-dried filters on a hot plate and the radio activity is counted in Microbia counter.

[7] = molecular target: T5, Muscarinic acetylcholine receptor M1 (Homo sapiens) (UniProt P11229)
T5 sequence (whole entry): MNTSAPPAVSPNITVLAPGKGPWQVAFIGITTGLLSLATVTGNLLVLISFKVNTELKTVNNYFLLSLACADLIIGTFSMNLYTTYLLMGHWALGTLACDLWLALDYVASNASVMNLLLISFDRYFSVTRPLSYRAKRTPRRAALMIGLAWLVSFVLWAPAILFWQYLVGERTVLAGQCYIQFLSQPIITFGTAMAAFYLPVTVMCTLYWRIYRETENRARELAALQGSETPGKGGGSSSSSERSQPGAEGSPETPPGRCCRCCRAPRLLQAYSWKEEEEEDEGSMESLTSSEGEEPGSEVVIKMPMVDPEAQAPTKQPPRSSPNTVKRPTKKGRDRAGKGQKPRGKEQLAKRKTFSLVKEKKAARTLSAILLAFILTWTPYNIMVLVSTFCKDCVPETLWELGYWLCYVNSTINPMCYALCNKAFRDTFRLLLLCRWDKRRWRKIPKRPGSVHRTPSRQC
Description: PDSP Primary Binding target: CHRM1 - Compounds are tested at 10 uM concentration, plate are incubated at room temperature in the dark for 90 minutes. Reaction are stopped by vacuum filtration onto 0.3% polyethyleneimine soaked filter mats using Filtermate harvester. Scintilation cocktail is then melted onto microwave-dried filters on a hot plate and the radio activity is counted in Microbia counter.

[8] = molecular target: T6, 5-hydroxytryptamine receptor 2C (Homo sapiens) (UniProt P28335)
T6 sequence (whole entry): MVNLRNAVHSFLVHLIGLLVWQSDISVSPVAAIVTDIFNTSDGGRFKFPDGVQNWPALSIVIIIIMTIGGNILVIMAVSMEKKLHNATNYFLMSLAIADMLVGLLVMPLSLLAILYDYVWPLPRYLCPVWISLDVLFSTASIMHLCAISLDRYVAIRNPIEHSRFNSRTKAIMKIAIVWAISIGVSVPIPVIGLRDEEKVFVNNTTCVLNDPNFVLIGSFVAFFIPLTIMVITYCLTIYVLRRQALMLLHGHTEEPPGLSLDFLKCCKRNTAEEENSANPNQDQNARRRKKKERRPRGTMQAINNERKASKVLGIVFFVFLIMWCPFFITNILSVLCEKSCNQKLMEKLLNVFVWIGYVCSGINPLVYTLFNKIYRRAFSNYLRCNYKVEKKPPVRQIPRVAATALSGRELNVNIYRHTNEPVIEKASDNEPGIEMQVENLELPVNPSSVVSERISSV
Description: PDSP Primary Binding target: HTR2C - Compounds are tested at 10 uM concentration, plate are incubated at room temperature in the dark for 90 minutes. Reaction are stopped by vacuum filtration onto 0.3% polyethyleneimine soaked filter mats using Filtermate harvester. Scintilation cocktail is then melted onto microwave-dried filters on a hot plate and the radio activity is counted in Microbia counter.

Chain of Histamine H1 receptor (Homo sapiens) (P35367 whole entry): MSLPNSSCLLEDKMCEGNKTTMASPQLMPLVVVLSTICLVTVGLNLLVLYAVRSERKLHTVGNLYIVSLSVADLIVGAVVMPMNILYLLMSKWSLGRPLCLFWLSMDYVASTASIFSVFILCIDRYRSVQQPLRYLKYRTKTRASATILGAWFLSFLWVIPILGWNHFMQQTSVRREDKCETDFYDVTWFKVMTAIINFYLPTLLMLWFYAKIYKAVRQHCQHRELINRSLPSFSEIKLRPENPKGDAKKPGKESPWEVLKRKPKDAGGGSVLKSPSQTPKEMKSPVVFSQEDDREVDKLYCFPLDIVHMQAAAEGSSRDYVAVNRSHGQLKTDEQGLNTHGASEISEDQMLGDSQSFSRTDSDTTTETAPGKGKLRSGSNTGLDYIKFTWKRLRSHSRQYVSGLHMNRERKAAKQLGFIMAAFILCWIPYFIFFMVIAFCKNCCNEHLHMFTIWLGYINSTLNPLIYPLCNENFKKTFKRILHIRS
Chain of Translocator protein (Homo sapiens) (P30536 whole entry): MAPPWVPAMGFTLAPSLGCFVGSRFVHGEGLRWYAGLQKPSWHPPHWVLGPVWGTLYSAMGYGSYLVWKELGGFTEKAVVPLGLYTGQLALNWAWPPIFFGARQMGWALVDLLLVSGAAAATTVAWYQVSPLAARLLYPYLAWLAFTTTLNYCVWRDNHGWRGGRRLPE

| Compound | inhibition [1] [%] | inhibition [2] [%] | inhibition [3] [%] | inhibition [4] [%] | inhibition [5] [%] | inhibition [6] [%] | inhibition [7] [%] | inhibition [8] [%] |
| --- | --- | --- | --- | --- | --- | --- | --- | --- |
| CC(C)NCC(O)COc1ccc(CCOCC2CC2)cc1 (configuration not stated) | 22.5 | 19.5 | 4.48 | -7.39 | 1.05 | -1.07 | 0.88 |  |
| CCCCN(CCCC)C(=O)CN1C[C@@H](c2ccc3c(c2)OCO3)[C@H](C(=O)O)[C@H]1c1ccc(OC)cc1 | 7.9 | -5.54 | 84.7 | 11.4 | 3.82 | -4.59 | -7.47 |  |
| C/C(=N\NC(=O)[C@@H]1C(=O)NC[C@H]1c1ccccc1)c1cccc(Br)c1 |  |  | 46.9 | 4.55 | 58.5 | 26.4 | -1.51 | 33.4 |
| S=C(NCCCc1c[nH]cn1)NCCCN(Cc1ccc(Cl)c(Cl)c1)c1ccc(Br)cn1 |  | 89.3 | 30.9 | 84.5 | 83 | 43.2 | 60.7 | 100 |
| COc1ccc(C2(O)OC(=O)C(c3ccc4c(c3)OCO4)=C2Cc2cc(OC)c(OC)c(OC)c2)cc1 (configuration not stated) | 1.32 | -4.11 | 37 | 3.1 | 11.8 | 8.87 | -8.77 |  |
| CCc1cc2c(c(CC)n1)CCC(=O)N2Cc1ccc(-c2ccccc2-c2nnn[nH]2)cc1 | -4.36 | 25.9 | 45.9 | 18.5 | 8.58 | -4.87 | 1.99 |  |
| C[C@H](Cc1cc2c(c(C(N)=O)c1)N(CCCO)CC2)NCCOc1ccccc1OCC(F)(F)F | -8.65 | 81.6 | 2.96 | 90.7 | 62.9 | 100 | 20.8 |  |
| CCN(CC)CCCCC1CCN(CC(=O)N2c3ccccc3C(=O)Nc3cccnc32)CC1 | 95.5 | -0.95 | -2.79 | -8.07 | -7.08 | 0.4 | 89.1 |  |
| C[C@H](NC[C@H](O)CP(=O)(O)CC1CCCCC1)c1ccc(Cl)c(Cl)c1 | -3.27 | 6.11 |  | 1.74 | 9.98 | -7.25 | 8.07 |  |
| CC(C)C[C@H](NC(=O)N1CCCCCC1)C(=O)N[C@H](Cc1cn(C)c2ccccc12)C(=O)N[C@H](Cc1ccccn1)C(=O)O | 0.19 | 10.1 | 25.5 | 14.1 | 5.31 |  | 0.87 |  |
| CC(C)NCC(O)c1ccc(N)c(C#N)c1 (configuration not stated) |  | -5.56 |  | -0.15 | 34.1 | 37.6 | -2.53 | -7.04 |
| c1ccc(N2CCN(Cc3nc4ccccc4[nH]3)CC2)nc1 | -4.29 |  | 6.18 | 6.23 | 15.6 | 35.1 | 22.3 | -9.96 |
| CCOC(=O)c1c(C)[nH]c2ccc3c(c12)CN1CCc2cc(OC)ccc2C1O3 (configuration not stated) | 92.3 | 27.5 | 28.3 | 41.3 | 24.9 |  | 11.9 |  |
| Cc1c(OCc2cccc(-c3ccc(C(=O)O)cc3)c2)cc2c(c1C)C(=O)C(C1CCCC1)C2 (configuration not stated) |  | 63.1 | 17.6 | 48.4 | -3.97 | -4.54 | -9.01 | 6.16 |
| Cc1csc2c(N[C@@H](C)CN3CCN(S(=O)(=O)c4ccc(Cl)c(Cl)c4)CC3)ncnc12 |  | 7.3 | 73.6 | -5.96 | 20.4 | 17 | 6.35 |  |
| CC[C@@H]1CN2C(=O)N(C)c3nc(-c4ccccc4)[nH]c3C2=N1 |  | -5.35 | -3.48 | 4.28 | 27.4 | 12 | 1.36 | 14.2 |
| O=C(Nc1ccc(Cl)cc1)Nc1cccc(-c2cccc(N3CCCC3)n2)c1 | 18.8 |  | 34.9 | 1.27 | -4.85 | 28.2 | 9.22 |  |
| C[C@@H](N)Cc1c[nH]cn1 |  |  |  | 8.76 | 8.33 | -9.3 | 2.87 | 5.48 |
| COc1cc2c(CCNC(C)=O)c[nH]c2cc1Cl |  |  | 20.1 | 1.85 | 3.86 | -4.64 | -4.88 | 18.8 |
| N#Cc1c(N)nc(SCC(N)=O)c(C#N)c1-c1ccc(OCC2CC2)cc1 | 34.5 | -6.52 | 39 | 16.2 | 22.6 | 2.75 | 1.45 |  |
| Cc1cc(C)cc(C(=O)N(C)[C@H](Cc2ccc(-c3ccccc3)cc2)C(=O)N[C@@H](Cc2c[nH]c3ccccc23)C(=O)O)c1 | 1 | 1.27 | 28.8 | 22.3 | 15.5 | 15.9 | 12.5 |  |
